Measured values taken from US10406122B2 (priority 2011, dated 2019).
Where a name gives a salt, the structure may show the parent alone. Read-outs that look alike come from different tables or passages of the source.

Columns and labels:
rats and dogs = conditions: repeat-dose; cited from earlier work
clinical = conditions: human, in vivo
Text: The secondary objectives of the study are to assess the safety and tolerability of the study medication.
The study was an open-label, single-period, randomized, parallel treatment design. The subjects underwent screening within 4 weeks of dosing. A total of 32 subjects were selected for participation. All subjects entered the clinical research unit on Day −1 prior to dosing. A blood sample for pharmacogenomic analysis was obtained at Day 1. This sample was to be used to determine the CYP2D6 phenotype if significant variability among subjects is observed in the pharmacokinetic values. Subjects received study drug every 6 hours beginning on the morning of Day 1 and ending on the morning of Day 3. The first dose on Day 1 and the last dose on Day 3 were administered after a minimum 10 hour fast.
No food was administered until 4 hours after dosing on Day 3. Standardized meals were provided. Subjects remained confined to the clinical research unit until after completion of the 24 hour post-dose blood sampling and safety assessments (Day 4). […] Study drug tolerability was evaluated by Investigator assessment and evaluation of adverse event frequency and severity, including irritation at the injection site. Subjects who were taking SSRIs, tricyclic antidepressants, antipsychotic agents and MAO inhibitors were excluded from the study.
The treatments are defined in Table 3 below. Each subject received only one of the designated treatments.
The subjects were randomized to receive one of the 4 treatment regimens as outlined above. Subjects were administered Treatments A or C by intravenous administration or Ultram® (Treatment B or D) orally beginning in the morning of Day 1 at approximately 6:00 AM to 8:00 AM. All subjects fasted for at least 10 hours prior to the first dose of study drug. […] Water was allowed ad libitum; however, water was restricted from 1 hour prior to dosing to 1 hour after dosing on Day 3. Following the last dose in the morning of Day 3, no food was allowed until after the 4 hour blood sample had been obtained.
FIG. 1 is a graphical representation of the plasma concentration curve for Treatments A-D after the administration of dose #9.

[1] = system: patients undergoing abdominal surgery; conditions: both groups; cited from earlier work
[2] = system: experienced opioid abusers; conditions: cited from earlier work

For `COc1cccc([C@]2(O)CCCC[C@H]2CN(C)C)c1` (racemic) [Tramadol, (±)cis-2-[(dimethylamino)methyl]-1-(3-methoxyphenyl) cyclohexanol hydrochloride], the “doses with behavioral/clinical signs and convulsions” value (rats and dogs) is given as ≥ 25 mg/kg/day, the “Bioavailability, AUC6” value (clinical; 50 mg) is given as 85.2% and the “Bioavailability, AUCt” value (clinical; 50 mg) is given as 102.0%. For the same compound, the “Bioavailability, AUC∞” value (clinical; 50 mg) was 103.1%, the “Bioavailability, Cmax” value (clinical; 50 mg) was 64.3% and the “Bioavailability, T1/2” value (clinical; 50 mg) was 109.6%. For the same compound, the bioavailability (clinical; 50 mg) was 91.2%, the “Bioavailability, AUC6” value (clinical; 100 mg) was 70.3% and the “Bioavailability, AUCt” value (clinical; 100 mg) was 74.8%. The “Bioavailability, AUC∞” value (clinical; 100 mg) was 74.6%, the “Bioavailability, Cmax” value (clinical; 100 mg) was 54.9% and the “Bioavailability, T1/2” value (clinical; 100 mg) was 88.0%. For the same compound, the bioavailability (clinical; 100 mg) was 114%, the dose proportionality (clinical; iv) was “substantially dose proportional” and the AUC (clinical; iv, 50 mg) was 1960 ± 450 ng·h/mL. For the same compound, the AUC(0-inf) (clinical; iv, 50 mg) was 4040 ± 1060 ng·h/mL, the AUC(0-t) (clinical; iv, 50 mg) was 4010 ± 1040 ng·h/mL and the half-life (clinical; iv, 50 mg) was 6.61 ± 0.4 h. For the same compound, the Cmax (clinical; iv, 50 mg) was ~541 ng/mL, the Tmax (clinical; iv, 50 mg) was ~0.375 h and the AUC (clinical; iv, 100 mg) was 4730 ± 1240 ng·h/mL. The AUC(0-inf) (clinical; iv, 100 mg) was 11400 ± 4540 ng·h/mL, the AUC(0-t) (clinical; iv, 100 mg) was 11200 ± 4270 ng·h/mL and the half-life (clinical; iv, 100 mg) was 7.89 ± 1.54 h. The Cmax (clinical; iv, 100 mg) was ~1250 ng/mL, the Tmax (clinical; iv, 100 mg) was ~0.406 h and the “Dose Proportionality Ratio, T1/2” value (clinical; po) was 0.945. It also gave an AUC (clinical; po, 50 mg) of 1730 ± 625 ng·h/mL, an AUC(0-inf) (clinical; po, 50 mg) of 4450 ± 2110 ng·h/mL and an AUC(0-t) (clinical; po, 50 mg) of 4360 ± 2030 ng·h/mL. The half-life (clinical; po, 50 mg) was 7.39 ± 1.72 h, the Cmax (clinical; po, 50 mg) was 355 ± 121 ng/mL and the Tmax (clinical; po, 50 mg) was 1.88 ± 0.78 h. For the same compound, the AUC (clinical; po, 100 mg) was 3360 ± 1010 ng·h/mL, the AUC(0-inf) (clinical; po, 100 mg) was 8850 ± 4570 ng·h/mL and the AUC(0-t) (clinical; po, 100 mg) was 8660 ± 4260 ng·h/mL. The half-life (clinical; po, 100 mg) was 7.05 ± 1.97 h, the Cmax (clinical; po, 100 mg) was 703 ± 210 ng/mL and the Tmax (clinical; po, 100 mg) was 2.32 ± 1.35 h. For the same compound, the “patients reporting adverse events” value [1] was 25%, the seizure ([2]; 200 mg IV administered over 5 minutes) was “No seizures were observed” and the seizure ([2]; 300 mg IV delivered over 2.5 minutes) was “seizure was observed”. The seizure ([2]; 700 mg IV administered over 1 minute) was “seizure was observed”, the “ratings of feel drug effect compared to placebo” value ([2]; IV over 5 minutes) was “significantly increased ratings” and the “ratings of liking / ARCI-MBG scale” value ([2]; tramadol 100 and 200 mg IV, morphine 10 and 20 mg IV, over 5 minutes) was “neither dose of tramadol increased ratings”.
